“Also recorded” adds a separate entry of the source.
T1: Pr3 (Homo sapiens, UniProt P24158)
T1 construct: Aliquots of sputum homogenates containing peptidases in the 10 nanomolar range; from tissue; host or cells: sputum of cystic fibrosis patients (crude homogenate in PBS)
T1 sequence (P24158 28-248 limits assumed): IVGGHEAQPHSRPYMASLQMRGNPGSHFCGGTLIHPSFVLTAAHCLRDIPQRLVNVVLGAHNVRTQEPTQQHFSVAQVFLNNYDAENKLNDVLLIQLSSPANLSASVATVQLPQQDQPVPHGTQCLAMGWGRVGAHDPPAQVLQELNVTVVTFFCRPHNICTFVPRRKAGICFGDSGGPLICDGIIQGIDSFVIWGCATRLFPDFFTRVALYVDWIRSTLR

T2: HNE (Homo sapiens, UniProt P08246)
T2 construct: Aliquots of sputum homogenates containing peptidases in the 10 nanomolar range; from tissue; host or cells: sputum of cystic fibrosis patients (crude homogenate in PBS)
T2 sequence (P08246 30-247 limits assumed): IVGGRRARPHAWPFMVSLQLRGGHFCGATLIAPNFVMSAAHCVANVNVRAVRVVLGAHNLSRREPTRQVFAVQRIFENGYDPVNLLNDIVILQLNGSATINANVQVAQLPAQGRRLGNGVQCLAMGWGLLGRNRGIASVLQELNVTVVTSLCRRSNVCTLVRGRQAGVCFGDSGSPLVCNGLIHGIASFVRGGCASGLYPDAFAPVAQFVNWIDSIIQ

T3: CG (Homo sapiens, UniProt P08311)
T3 construct: Aliquots of sputum homogenates containing peptidases in the 10 nanomolar range; from tissue; host or cells: sputum of cystic fibrosis patients (crude homogenate in PBS)
T3 sequence (P08311 21-243 limits assumed): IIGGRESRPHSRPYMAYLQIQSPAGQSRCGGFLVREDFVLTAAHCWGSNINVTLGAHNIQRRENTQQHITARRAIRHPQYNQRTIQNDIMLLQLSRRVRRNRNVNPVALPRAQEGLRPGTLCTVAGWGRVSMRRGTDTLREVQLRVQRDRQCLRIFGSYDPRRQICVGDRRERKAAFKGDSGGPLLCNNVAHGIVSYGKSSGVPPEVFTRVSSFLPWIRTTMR

B1: DNase: DNase, most widely used mucoactive agent for CF patients; comparator (protein, UniProt P24855 23-282, looked up)
Deoxyribonuclease-1: LKIAAFNIQTFGETKMSNATLVSYIVQILSRYDIALVQEVRDSHLTAVGKLLDNLNQDAPDTYHYVVSEPLGRNSYKERYLFVYRPDQVSAVDSYYYDDGCEPCGNDTFNREPAIVRFFSRFTEVREFAIVPLHAAPGDAVAEIDALYDVYLDVQEKWGLEDVMLMGDFNAGCSYVRPSQWSSIRLWTSPTFQWLIPDSADTTATPTHCAYDRIVVAGMLLRGAVVPDSALPFNFQAAYGLSDQLAQAISDHYPVEVMLK

Assays:
[1] = test system: neutrophil serine proteases (HNE, Pr3 and CG); experiment: Proteases activities and inhibition in CF sputum, overall comparison of treatments; format: biochemical, human; settings: compared with pLK of higher MW (40,000-50,000 Da)
Experimental: (§1) Sputum processing-CF sputum was collected into 50 ml Falcon® tubes by physiotherapy and processed immediately. Sputum was diluted with 3 volumes of PBS per gram and homogenized to obtain a crude homogenate that was kept on ice. An aliquot of each homogenate was incubated for 2 h in low-binding microtubes with 400 μg/ml DNase or with 1.5 mg/ml of poly-L-Lysine (pLK) or PEGylated pLK (PEG-g-pLK) under gentle stirring at room temperature, then layered on a glass slide for cell counting by trypan blue exclusion and visual aspect under the optical microscope. Different sizes of pLK were tested (pLK, HBr of either 500-2,000 Da, 1000-5,000 Da, 4,000-15,000 Da and 40,000-50,000 Da molecular weight). PEG-g-pLK was pLK of 40,000-50,000 Da molecular weight grafted with one mPEG molecule of 5,000 Da.
Proteases activities were measured as described in (26) with the specific FRET (fluorescence resonance energy transfer) substrates of HNE, Pr3 and CG: Abz-APEEIMRRQ-YNO2, Abz-VADnVADQ-EDDnp and Abz-TPFSGQ-YNO2 respectively (λex=320 nm and λem=420 nm). The concentrations of active proteases in biological samples were determined by comparing the rates of hydrolysis of their specific substrates with those of commercial titrated proteases under the same experimental conditions. […]

Beas-2B cells = experiment: In vitro cellular toxicity in Beas-2B cell cultures; format: cell-based; settings: in vitro cultures of Beas-2B cells
control mice = format: in vivo, mouse
From the text: The objective of the study was to identify the nature and the dose of polycations to be aerosolized safely in control mice.
In vivo assessment of polycations toxicity has been done by cytologic analysis of bronchoalveolar lavage fluids (BALFs), quantification of proinflammatory cytokines (IL6 and KC) and lung anatomopathology.
Aerosol administration of different doses of pLK was done using a Microsprayer®. Mice were killed at day 2 and day 5 and bronchoalveolar lavage fluids (BALF) were obtained with instillation of 5×0.5 mL of sterile PBS into the lungs. Lungs were perfused with 4% formaldehyde for histological studies. Cells were collected after centrifugation of BALFs, suspended in PBS, and analyzed by flow cytometry. The supernatant was used for cytokine quantification using commercially available ELISA kits.

[2] = test system: S. aureus (strain CIP 103811); experiment: Antimicrobial test and scanning electron microscopy, S. aureus; format: cell-based, Staphylococcus aureus; settings: for bactericidal effect (CFU): 6×10^6 bacteria, 3 h, 150 μl PBS, 110 μg DNase or 2 μg pLK
Experimental: (§2) The bacterial count was determined by the measure of OD600nm.
(§3) 6×10^6 bacteria were incubated in low-binding 96-wells microplates 3 h in 150 μl PBS containing 110 μg of DNase or 2 μg of pLK (MW 40,000-50,000 Da). Aliquots of the media were then collected and serial dilutions in PBS were laid on agar plates. CFUs were numbered after incubation at 37° C. Extracellular DNA in the remaining media was quantified as previously described as a marker of bacterial wall permeability.
(§4) 6×10^6 bacteria were settled on polylysine-coated glass slides and treated (or not) with DNase or pLK (pLK of 40,000-50,000 Da). They were then fixed with 1% (v/v) glutaraldehyde and 4% (v/v) paraformaldehyde in 0.1 M PBS, pH 7.4, post-fixed in 2% (v/v) osmium tetroxide, dehydrated in a graded acetone series, dried to the critical point using carbon dioxide, and sputter coated with platinum.

CF sputum = CF sputum homogenate treatment: visual aspect and cell counting; set-up: species or system human; settings: for morphological aspect of the sputum after treatment: CF sputum homogenate, 2 h, 400 μg/ml DNase or 1.5 mg/ml pLK
Experimental: as §1
The increased viscosity of mucus in the CF lung leads to lung obstruction and subsequent decrease in lung function. Because DNA is a major component of CF lung secretions that contributes to their viscosity, rhDNase has been used for long by CF patients as a liquefying expectorant (28). A possible other mean to fluidize lung secretions could be through the condensation of extracellular DNA by positively charged polymers. We checked this hypothesis using poly-L-lysine (pLK) and comparing the rheological properties of CF sputa before and after treatment by pLK. Then we compared the results with those obtained using DNase in the same conditions.

Pr3 = molecular target: T1, Pr3; experiment: Pr3 activity in whole CF sputa and its inhibition by α1-Pi; format: biochemical; settings: after treatment of whole CF sputum
Experimental: (§5) Proteases activities were measured as described in (26) with the specific FRET (fluorescence resonance energy transfer) substrates of HNE, Pr3 and CG: Abz-APEEIMRRQ-YNO2, Abz-VADnVADQ-EDDnp and Abz-TPFSGQ-YNO2 respectively (λex=320 nm and λem=420 nm). The concentrations of active proteases in biological samples were determined by comparing the rates of hydrolysis of their specific substrates with those of commercial titrated proteases under the same experimental conditions. HNE and Pr3 were titrated as described in (27) and CG was titrated with HNE-titrated recombinant human secretory leukocyte protease inhibitor.
(§6) Aliquots of sputum homogenates containing peptidases in the 10 nanomolar range, were incubated for 30 min at room temperature with increasing amounts of inhibitors up to a (I)/(E) molar ratio of about 40. The low Mr recombinant inhibitor EPI-hNE4 or α1-proteinase inhibitor (α1-Pi) were used to inhibit HNE, while α1-antichymotrypsin (ACT) was used to inhibit CG; Pr3 was inhibited with α1-Pi after samples had been incubated with a 1000-fold molar excess of EPI-hNE4 to avoid the α1-Pi interacting with HNE (8).

HNE = molecular target: T2, HNE; experiment: HNE activity in whole CF sputa and its inhibition by exogenous inhibitors; format: biochemical; settings: after treatment of whole CF sputum
Experimental: as §5, §6

[3] = test system: P. aeruginosa (strain PAO1); experiment: Antimicrobial test and scanning electron microscopy, P. aeruginosa; format: cell-based, Pseudomonas aeruginosa; settings: for bactericidal effect (CFU): 6×10^6 bacteria, 3 h, 150 μl PBS, 110 μg DNase or 2 μg pLK
Experimental: as §2, §3, §4

extracellular DNA = experiment: Quantification of extracellular DNA in CF sputum; set-up: species or system human; settings: for amount of extracellular DNA: CF sputum after treatment, EvaGreen
Experimental: as §1
Extracellular DNA is quantified with the non-cell-permeant fluorochrome EvaGreen™ dsDNA reagent (λex=488 nm and λem=520 nm).

CG = molecular target: T3, CG; experiment: CG activity in whole CF sputa and its inhibition by ACT; format: biochemical; settings: after treatment of whole CF sputum
Experimental: as §5, §6

[4] = aerosol 2.4 mg/kg (66 μg in 50 μL, about 130 μM), Mann-Whitney test

Molecule | bactericidal effect (CFU) [2] | morphology of the bacteria (scanning electron microscopy) ([2]; S. aureus) | morphological aspect of the sputum after treatment (CF sputum) | activity of PR3 (Pr3) | inhibition of PR3 by α1-Pi (Pr3) | elastase activity in whole sputum (HNE) | inhibition of elastase activity by elastase inhibitors (α1-Pi) (HNE) | bactericidal effect (CFU) [3] | morphology of the bacteria (scanning electron microscopy) ([3]; P. aeruginosa) | amount of extracellular DNA (extracellular DNA) | CG inhibition by ACT (CG) | also measured
poly-L-lysine [pLK 500-2,000 Da] |  |  |  |  |  |  |  |  |  |  |  | efficiency of pLK of different sizes [1]: far less efficient
poly-L-lysine [pLK (4-15 kDa)] |  |  |  |  |  |  |  |  |  |  |  | cellular toxicity (Beas-2B cells): can be observed; in vitro toxicity threshold (Beas-2B cells): 5 µM; efficiency of pLK of different sizes ([1]; listed as pLK 4,000-15,000 Da): same results as those with higher MW; BALF cellularity, treated vs control mice (control mice; [4]): no significant differences; cytokines quantification (IL6 and KC) in BALF, treated vs control mice (control mice; [4]): no significant differences; broncho-interstitial inflammation (histological study) (control mice; aerosol 2.4 mg/kg, day 2, both in treated and in control groups): minimal broncho-interstitial inflammation; lung lesion (histological study) (control mice; aerosol 2.4 mg/kg, day 2 and day 5): no lung lesion
poly-L-lysine [pLK] | significant bactericidal effect | less marked | fractionation of the sputum in dense aggregates and a very fluid phase | Neither pLK nor DNase treatments significantly affected | Neither pLK nor DNase treatments significantly affected | dramatic increase; also recorded: increase of elastase activity | stoichiometrically inhibited | significant bactericidal effect | significant modification of the morphology; also recorded: spiculated surface | important decrease | significantly improved | bacterial wall permeabilization (extracellular DNA, non-cell permeant fluorophore) ([2]; S. aureus): no wall permeabilization; apparent cell count in sputum homogenate (CF sputum; trypan blue exclusion, neutrophils found in aggregates): apparent decrease; bacterial wall permeabilization (extracellular DNA, non-cell permeant fluorophore) ([3]; P. aeruginosa): disruption of the bacterial wall; DNA degradation in treated sputum (extracellular DNA; extracellular content restored after addition of dextran sulfate): not degraded
B1 | no antimicrobial properties | nor it affected the morphology | no morphological change | Neither pLK nor DNase treatments significantly affected | Neither pLK nor DNase treatments significantly affected | dramatic increase; also recorded: increase of elastase activity | completely and stoichiometrically inhibited | no antimicrobial properties | nor it affected the morphology | important decrease | pLK, unlike DNase, significantly improved | 
